Reference: patent publication US4659696A, “Pharmaceutical composition and its nasal or vaginal use” (Takeda Chemical Industries, Ltd., priority 1982, dated 1987)
Like-named read-outs stand apart in the source and are kept apart here. Blank lines part the entries; values can stand above or below the molecule they belong to.

Assays:
[1] = Saturation solubility of cyclodextrin; format: physicochemical; conditions: isotonic buffer solution (pH 7.4)
[2] = rat, in vivo
Procedure: (§1) SD-strain mature female rats (weighing about 270 g, 14 to 18 weeks old, in groups of 4 to 5 individuals) at diestrus as selected by the vaginal smear test covering a period of at least one week are anesthetized with pentobarbital and phenobarbital at 8-11 a.m., and a solution prepared by dissolving 500 μg of TAP-144 and 20 mg (2%), 50 mg (5%) or 100 mg (10%) of α-cyclodextrin in physiological saline in an amount to make 1 ml is administered into the vagina with about 12 mg of cotton soaked therewith at the dose level of 0.2 ml/kg (corresponding 100 μg/kg of TAP-144). Blood samples are taken from the tail vein at timed intervals and assayed for the serum TAP-144 level by radioimmunoassay [refer to Endocrinologia Japonica, vol.

[3] = rat, in vivo; remark: listed apart in the source
Procedure: Male SD strain rats (body weights 250 g, approx.) fasted for 16 hours are used in groups of at least 3 animals. Each animal is anesthetized with pentobarbital and administered nasal medication in accordance with the method described in International Journal of Pharmaceutics 7, 317 (1981). Then, 0.1 ml/kg of insulin solution is directly administered into the nasal cavity with a micropipette via the nostril.
In 0.1 ml of physiological saline are dissolved 100 μg of TAP-144 and 5 mg of α-cyclodextrin, and in the manner of Experimental Example 1, the 0.1 ml/kg equivalent of the solution is administered into the nasal cavity (the dose of TAP-144: […]).

in vivo = conditions: female, SD, rat, 100 ug/kg, Concentration of TAP-144 in serum
Procedure: as §1

[4] = rats, rectal Witepsol W-35 suppository, sodium cefazolin 50 mg/kg
Procedure: Thereafter, blood sampling from the tail vein is performed at timed intervals and the plasma cefazolin level is determined by bioassay using Bacillus subtilis PCI-219 as the test organism.

[5] = test system: prothrombin time (blood coagulation time); assay: Prothrombin time (blood coagulation time) after rectal heparin sodium in rats; format: in vivo, rat; conditions: heparin sodium 600 U
Procedure: A 0.27 ml portion of each blood sample is placed in a polyethylene microtube containing 0.03 ml of 3.8 w/v percent of sodium citrate, the tube contents are stirred well and then centrifuged, and the plasma portion is subjected to prothrombin time (blood coagulation time) determination using a thromboplastin reagent (Simplastin, Ono Pharmaceutical Co., Japan). In the control group, the same procedure is followed with α-cyclodextrin-free heparin sodium. […] An increased absorption of heparin is thus shown.

[6] = rats, rectal suspension, 5-FU 50 mg/kg
Procedure: An amount (corresponding to 50 mg/kg) of 5-FU and 5 mg of α-cyclodextrin are finely milled in a mortar and added to 0.1 ml of physiological saline. The mixture is subjected to ultrasonic treatment (27 KHz, 5 minutes). The thus-obtained suspension is rectally administered to rats in the manner in Experimental Example 7. Blood samples are taken from the tail vein at timed intervals and 5-FU plasma levels are determined by bioassay using Micrococcus luteus ATCC-10240 as the test organism. In the control group, the procedure is followed with α-cyclodextrin-free 5-FU.

Molecule: OC[C@H]1O[C@@H]2O[C@H]3[C@H](O)[C@@H](O)[C@@H](O[C@H]4[C@H](O)[C@@H](O)[C@@H](O[C@H]5[C@H](O)[C@@H](O)[C@@H](O[C@H]6[C@H](O)[C@@H](O)[C@@H](O[C@H]7[C@H](O)[C@@H](O)[C@@H](O[C@H]8[C@H](O)[C@@H](O)[C@@H](O[C@H]1[C@H](O)[C@H]2O)O[C@@H]8CO)O[C@@H]7CO)O[C@@H]6CO)O[C@@H]5CO)O[C@@H]4CO)O[C@@H]3CO [β-cyclodextrin]
saturation solubility [1]: about 1.8%

Concentration of TAP-144 in serum ([2]; female, SD, 100 ug/kg, 0.5 h): 45.3 ng/mL | promotion of vaginal absorption [2]: about 6 times | increase in bioavailability [3]: about 3.5 times | level at 0.5 h (in vivo): 28.1 ng/mL | level at 2 h (in vivo): 39.2 ng/mL | level at 4 h (in vivo): 32.1 ng/mL
Molecule: CCNC(=O)[C@@H]1CCCN1C(=O)[C@H](CCCNC(=N)N)NC(=O)[C@H](CC(C)C)NC(=O)[C@@H](CC(C)C)NC(=O)[C@H](Cc1ccc(O)cc1)NC(=O)[C@H](CO)NC(=O)[C@H](Cc1c[nH]c2ccccc12)NC(=O)[C@H](Cc1c[nH]cn1)NC(=O)[C@@H]1CCC(=O)N1 [TAP-144]

Plasma level ([4]; 10% (w/w) α-cyclodextrin, 0.5 hr.): 3840 ng/mL | Plasma level ([4]; 10% (w/w) α-cyclodextrin, 1 hr.): 5320 ng/mL | Plasma level ([4]; 10% (w/w) α-cyclodextrin, 2 hr.): 7370 ng/mL | Plasma level ([4]; 10% (w/w) α-cyclodextrin, 3 hr.): 6260 ng/mL | Plasma level ([4]; 10% (w/w) α-cyclodextrin, 4 hr.): 5320 ng/mL | Plasma level ([4]; no cyclodextrin, 0.5 hr.): 1760 ng/mL | Plasma level ([4]; no cyclodextrin, 1 hr.): 2210 ng/mL | Plasma level ([4]; no cyclodextrin, 2 hr.): 3000 ng/mL | Plasma level ([4]; no cyclodextrin, 3 hr.): 3490 ng/mL | Plasma level ([4]; no cyclodextrin, 4 hr.): 2540 ng/mL
Molecule: Cc1nnc(SCC2=C(C(=O)O)N3C(=O)[C@@H](NC(=O)Cn4cnnn4)[C@H]3SC2)s1 [sodium cefazolin]

Molecule: heparin sodium
Blood coagulation time ([5]; 5% (w/v) α-cyclodextrin, 0.5 hr., before administration 14.3): 17.2 s | Blood coagulation time ([5]; 5% (w/v) α-cyclodextrin, 0.75 hr., before administration 14.3): 18.4 s | Blood coagulation time ([5]; 5% (w/v) α-cyclodextrin, 1 hr., before administration 14.3): 19.7 s | Blood coagulation time ([5]; 5% (w/v) α-cyclodextrin, 1.5 hr., before administration 14.3): 18.9 s | Blood coagulation time ([5]; 5% (w/v) α-cyclodextrin, 2 hr., before administration 14.3): 19.4 s | Blood coagulation time ([5]; no cyclodextrin, 0.5 hr., before administration 13.6): 14.3 s | Blood coagulation time ([5]; no cyclodextrin, 0.75 hr., before administration 13.6): 13.7 s | Blood coagulation time ([5]; no cyclodextrin, 1 hr., before administration 13.6): 14.7 s | Blood coagulation time ([5]; no cyclodextrin, 1.5 hr., before administration 13.6): 15.3 s | Blood coagulation time ([5]; no cyclodextrin, 2 hr., before administration 13.6): 14.7 s

Molecule: O=c1[nH]cc(F)c(=O)[nH]1 [5-FU, 5-fluorouracil]
AUC (0-4 hr.) ([6]; 5% (w/v) α-cyclodextrin): 4.0 | Plasma level ([6]; 5% (w/v) α-cyclodextrin, 0.5 hr.): 1370 ng/mL | Plasma level ([6]; 5% (w/v) α-cyclodextrin, 1 hr.): 1720 ng/mL | Plasma level ([6]; 5% (w/v) α-cyclodextrin, 2 hr.): 1050 ng/mL | Plasma level ([6]; 5% (w/v) α-cyclodextrin, 4 hr.): 490 ng/mL | AUC (0-4 hr.) ([6]; no cyclodextrin): 1.1 | Plasma level ([6]; no cyclodextrin, 0.5 hr.): 970 ng/mL | Plasma level ([6]; no cyclodextrin, 1 hr.): 430 ng/mL | Plasma level ([6]; no cyclodextrin, 2 hr.): 130 ng/mL | Plasma level ([6]; no cyclodextrin, 4 hr.): 60 ng/mL
